For one data set, the target named is T1, HIV-1 protease (Human immunodeficiency virus type 1 group M subtype B, UniProt P04585).
T1 construct: adding 2.6nM of HIV-1 protease to the preincubation solution
The class given is biochemical. As to conditions: KINSIM/FITSIM analysis.

For another data set, the system named is HIV-1. The data set can be described thus: Anti-viral activity: inhibition of HIV proliferation in H9 (reverse transcriptase activity) and Sup T1 (syncytium formation) cell lines. The conditions noted are these: concentration at which the proliferation of HIV is inhibited by 50%, H9 or Sup T1 cells, cell line not stated. The class given is cell-based. How it is done: 1 x 10^5 cells of each of H9(ATCC HTB 176) and Sup T1 cell lines were added to the wells of a 24-well microtiter plate and the compound of the present invention was added thereto in various concentrations. 200 TCID50(200-fold of 50% tissue culture infection dose) of HIV-1 inoculum and rpmi-1640 medium(Sigma Chemical Co., U.S.A) were added successively to the wells and the plate was incubated at 37°C. In case of Sup T1, the number of syncytium formed was investigated after 3 to 9 days.
In the case of H9, three-quarters(3/4) of the culture medium was refreshed every 3 days. After 9 days, 6ml of the culture fluid was centrifuged at 1000rpm for 10 minutes. To 5ml of the resulting supernatant were added 2.5ml of 30% polyethylene glycol(PEG, M.W. 6000-8000) and 0.4M NaCl. The resulting solution was allowed to stand at 0°C overnight to precipitate virus particles. The solution was centrifuged at 2000rpm for 45 minutes, the supernatant was discarded therefrom and the precipitate was diluted with 20ml of a reverse transcriptase suspension buffer(50mM tris-HCl(Sigma), pH 7.5, 1mM dithiothreitol, 20% glycerol, 0.25M KCl and 0.25% Triton X-100). The resulting suspension was stored in an Effendorf tube at -70°C until use. A cycle of freezing the above virus suspension for 2 minutes in dry ice and thawing it at 37°C for 2 minutes was repeated three times and the resulting suspension was centrifuged at 4°C. The resulting supernatant was used in carrying out the reverse transcriptase assay.
10µl of the above virus suspension was added to a solution prepared by mixing: 10µl of buffer solution(250mM tris-HCl, pH 7.5, 37.5mM MgCl2, 0.25% triton X-100), 1.2µl of 200mM dithiothreitol, 5µl of 10µM oligo(dT)-poly(A)(Boeringer Mannheim, 12-18 oligomer), 1µl(1µCi) of ^3H-TTP(thymidinetriphosphate) and 23.6µl of water; and the resulting mixture was kept at 37°C. […] The amount of radioactivity was counted using a liquid scintillation counter.

For another data set, the system named is H9 cell or Sup T1 cell. The experiment in a line: Cytotoxicity by trypan blue dye exclusion. The class given is cell-based. As to conditions: human, h9 or sup t1 cells. Here is the method:
(§1) To determine the cytotoxicity of the compound of the present invention, 0.1µM to 100µM of the compound was added to H9 cell or Sup T1 cell and the mixture was cultured on a rpmi-1640 medium at 37°C. The medium was refreshed every 3 days and the extent of cell proliferation was observed using Hemacytometer according to the trypan blue dye exclusion technique which is well known in the art. CT50(i.e., the concentration at which 50% of the cells die) was determined.

The nature of data set [1]: Cytotoxicity by trypan blue dye exclusion. Type of data set: cell-based. The conditions noted are these: human, h9 or sup t1 cells; concentration at which 50% of the cells die; 0.1µM to 100µM tested; cell line not stated; read-out: CT50 (the source's name). How it is done: as §1

Description for HIV-1 protease: To a buffer solution comprising 50mM sodium acetate, pH 5.5, 1mM dithiothreitol(DTT), 1mM ethylenediaminetetraacetate (EDTA), 0.75M ammonium sulfate and 0.1% NP40(NONIDET P-40; Sigma Chemical Co., U.S.A.), was added a pre-determined amount of the compound obtained in Example to prepare a preincubation solution having a known concentration of the compound. The inhibition reaction was initiated by adding 2.6nM of HIV-1 protease to the preincubation solution. 10µl samples of the reaction solution were taken at a given time interval and each sample was added to 80µl of assay solution containing 100µM of reaction substrate in the same buffer solution as above to assay for the residual enzyme activity. […] The reaction rate was determined by subjecting both the substrate before the reaction and the product after the reaction to HPLC separation and then measuring the amount of the product relative to the substrate, using the strong absorbance of (p-NO2)-Phe at 280nm. The decrease in the enzyme activity with time was measured for each sample and the natural logarithmic values(ln) of the data points in a given experiment were plotted against time to obtain a linear correlation line. kobs was then calculated from the slope of the line.
The inhibition constant was calculated according to the following equation: (1)/(kobs)=(1)/(kina)+(KI)/(kina)(1)/([I]) [formula] wherein: kobs is a rate constant representing the rate of decrease in enzyme activity in the presence of the inhibitor, kina is a rate constant representing the rate of the irreversible covalent bond formation between the enzyme and the inhibitor (in Michaelis-Menten complex), KI is an inhibition constant represented by the equilibrium constant for the formation of the Michaelis-Menten complex from an enzyme and an inhibitor, and [I] designates the inhibitor concentration.
The inhibition constants KI, the rate constant kina and the second order rate constant kina/KI were tabulated by inputting the value of [E]/([E]+[EI]+[EI'] [formula] ) into KINSIM/FITSIM program.

In general, Ki refers to the dissociation constant of the complex between target and ligand, obtained from inhibition or displacement. The low end stands for a stronger hold on the target, the high end for a looser hold on the target. As usually defined, the IC50 is the concentration that gives 50% inhibition. “[(5S)-[(N-isopropyloxycarbonyl)-β-methanesulfonyl-L-valinyl]amino]-(4R, 3S)-epoxy-6-phenyl-1-hexanoyl]-[(2S)-(1-phenyl-3-methyl-1-oxo)butylamino]amide [compound of the present invention]” showed a Ki on HIV-1 protease (inhibition constant, 2.6nM HIV-1 protease, pH 5.5) of 0.012 µM. In addition, the kina on HIV-1 protease (rate constant of irreversible covalent bond formation between enzyme and inhibitor) stood at 3.2 min⁻¹. Besides, the kina/KI on HIV-1 protease (second order rate constant) is on record as 2.7 x 10^7 min^-1M^-1. Besides, the IC50 with HIV-1 was 0.015 µM. In the data set with H9 cell or Sup T1 cell, this compound registered a CC50 of 10 µM.
As for `CC(C)c1nc(CN(C)C(=O)N[C@H](C(=O)N[C@@H](Cc2ccccc2)C[C@H](O)[C@H](Cc2ccccc2)NC(=O)OCc2cncs2)C(C)C)cs1` [ABI-538], the IC50 in the data set on HIV-1 turned out to be 0.053 µM. In other words, the double-digit nanomolar range.
In the case of `CC(C)(C)NC(=O)[C@@H]1CN(Cc2cccnc2)CCN1C[C@@H](O)C[C@@H](Cc1ccccc1)C(=O)N[C@H]1c2ccccc2C[C@H]1O` [MK-639, reference compound], the IC50 in the data set with HIV-1 (Human immunodeficiency virus 1) came out at 0.01 µM. Besides, the CC50 in data set [1] was determined as 10 µM.

The record behind these values is EP0770606A1, “Cis-epoxide derivate useful as irreversible HIV protease inhibitor and process for its preparation” (LG Chemical Limited, priority 1995, dated 1997).
